# Where “and” joins values, the source holds several entries; their conditions need not be identical. Identical values can stand only once.
# Legend:
# [1] = test system: rat model with local cerebral ischemia; details: literature reports (13, 14, 15); cited from earlier work
# formalin test = details: administered into spinal cord, literature reports (1, 2); cited from earlier work
# [2] = test system: rat model with occlusion in the middle cerebral artery; test: Effect (II) of reducing infarct volume in a rat model with occlusion in the middle cerebral artery (permanent occlusion); type: in vivo
# Protocol: Effect (II) of Reducing Infarct volume in a Rat Model with Occlusion in the Middle Cerebral Artery
# The typical example of the compound of the present invention (the compound in Example 1) was compared with compounds disclosed in JP 8-508037-A (WO 94/25469, U.S. Pat. No. 5,750,525), which have affinity for AMPA receptors and is effective against cellular necrosis after ischemia in anoxia and hypocalcemia.
# The compound of the present invention was dissolved in physiological saline to be adjusted to a dosage of 10 or 20 mg/kg/h just before use.
# The control compound was dissolved in physiological saline to be adjusted to a dosage of 3 mg/kg/h just before use.
# Occlusion in the middle cerebral artery was conducted according to the method described above. However, the middle cerebral artery was permanently occluded without removing the nylon embolus.
# Two hours after the middle cerebral artery was occluded, a syringe containing the medium or the sample (10 or 20 mg/kg/h) was attached to a catheter for intravenous administration, and half (0.31 ml) of the dosage to be infused for 1 hour was intravenously administered for 1 minute. Thereafter, the medium or the sample was administered continuously for 6 hours at a rate of 0.616 ml/h by the use of a syringe pump for infusion. During administration and for 2 hours after administration was finished, the temperature of the rectum was maintained in the range of 37.0 to 38.5° C. in a system for controlling body temperature. After the body temperature control was finished, the animal was returned to a cage and maintained for 1 day in a breeding room.
# Two hours after the middle cerebral artery was occluded, a syringe containing the medium or the sample (3 mg/kg/h) was attached to a catheter for intravenous administration, and the medium or the sample was administered continuously for 6 hours at a rate of 0.616 ml/h by means of the syringe pump for infusion. During administration and for 2 hours after administration was finished, the temperature of the rectum was maintained in the range of 37.0 to 38.5° C. in the system for controlling body temperature. After the body temperature control was finished, the animal was returned to a cage and maintained for 1 day in a breeding room.
# The middle cerebral artery was permanently occluded by the nylon embolus, and the infarct volume was measured 24 hours after the occlusion was conducted.
# mice in a formalin test = test: Antalgic effect (II) on mice in a formalin test (comparison with morphine and indomethacin); type: in vivo
# Protocol: Antalgic Effect (II) on Mice in a Formalin Test
# The typical example of the compound of the present invention (the compound in Example 1) was compared with morphine and indomethacin in the same manner as in Pharmacological Experimental Example 5 above.
# 20.4 mg of the compound of the present invention was weighed, and 10.2 ml of 5.28% mannitol was added thereto to prepare 2 mg/ml (20 mg/kg) solution. Then, 3.8 ml of 5.28% mannitol was added to 3.8 ml of the 2 mg/ml solution to prepare 1 mg/ml (10 mg/kg) solution. Finally, 2.5 ml of 5.28% mannitol was added to 2.5 ml of the 1 mg/ml solution to prepare 0.5 mg/ml (5 mg/kg) solution. The test compound was weighed and prepared on the day when the experiment was conducted.
# b-1) Morphine 17.0 mg of morphine purchased as a reagent was weighed, and 5.67 ml physiological saline was added thereto to form 3 mg/ml (30 mg/kg) solution. Then, 2.6 ml physiological saline was added to 1.3 ml of the 3 mg/ml solution to prepare 1 mg/ml (10 mg/kg) solution. Finally, 2.1 ml physiological saline was added to 0.9 ml of the 1 mg/ml solution to prepare 0.3 mg/ml (3 mg/kg) solution. The test compound was weighed and prepared on the day when the experiment was conducted.
# 12.9 mg of indomethacin purchased as a reagent was weighed, and 12.9 ml of 0.5% methyl cellulose (MC) was added thereto to form 1 mg/ml (10 mg/kg) suspension. Then, 2.24 ml of 0.5% MC was added to 0.96 ml of the 1 mg/ml suspension to prepare 0.3 mg/ml (3 mg/kg) suspension. Finally, 1.6 ml of 0.5% MC was added to 0.8 ml of the 0.3 mg/ml suspension to prepare 0.1 mg/ml (1 mg/kg) suspension. The test compound was weighed and prepared on the day when the experiment was conducted.
# The treatment group by the compound of the present invention consisted of 4 groups in total, that is, a control group, a 5 mg/kg compound administration group, a 10 mg/kg compound administration group, and a 20 mg/kg compound administration group, and each group consisted of 5 animals.
# The control group was given 0.1 ml of 5.28% mannitol per 10 g of the body weight via the tail vein. The compound of the present invention was administered via the tail vein at each concentration (0.5 mg/ml, 1 mg/ml, and 2 mg/ml) in an volume of 0.1 ml per 10 g of the body weight into the 5 mg/kg group, 10 mg/kg group and 20 mg/kg group, respectively.
# The treatment group by morphine consisted of 4 groups in total, that is, a control group, a 3 mg/kg morphine administration group, a 10 mg/kg morphine administration group, and a 30 mg/kg morphine administration group, and each group consisted of 5 animals.
# The control group was orally given 0.1 ml of physiological saline per 10 g of the body weight. Morphine was orally administered at each concentration (0.3 mg/ml, 1 mg/ml, and 3 mg/ml) in a volume of 0.1 ml per 10 g of the body weight into the 3 mg/kg group, 10 mg/kg group and 30 mg/kg group, respectively.
# The treatment group by indomethacin consisted of 4 groups in total, that is, a control group, a 1 mg/kg indomethacin administration group, a 3 mg/kg indomethacin administration group, and a 10 mg/kg indomethacin administration group, and each group consisted of 5 animals.
# The control group was orally given 0.1 ml of 0.5% MC per 10 g of the body weight. Indomethacin was orally administered at each concentration (0.1 mg/ml, […], and 1 mg/ml) in a volume of 0.1 ml per 10 g of the body weight into the 1 mg/kg group, 3 mg/kg group and 10 mg/kg group, respectively.
# 5.28% mannitol was administered via the tail vein into each group given the compound of the present invention or into the control group, and the animals were placed in a transparent plastic observation cage. 5 minutes later, 20 μl of 3% formalin was subcutaneously administered into the bottom of the left hind leg of each mouse. The duration of the behavior of mouse's licking the left hind leg after administration of formalin was measured for 5 minutes and used as an indication of pain. The duration was expressed in second. […]
molecule,measurement,setting,value
CSCC[C@@H]1NC(=O)[C@H](CC(C)C)NC(=O)[C@H](CCCNC(=N)N)NC(=O)[C@H](CO)NC(=O)[C@@H]2CSSC[C@@H]3NC(=O)[C@H](CO)NC(=O)CNC(=O)[C@H]([C@@H](C)O)NC(=O)[C@H](CSSC[C@H](N)C(=O)N[C@@H](CCCCN)C(=O)NCC(=O)N[C@@H](CCCCN)C(=O)NCC(=O)N[C@@H](C)C(=O)N[C@@H](CCCCN)C(=O)N2)NC(=O)[C@H](CSSC[C@@H](C(N)=O)NC(=O)[C@H](CCCCN)NC(=O)CNC(=O)[C@H](CO)NC(=O)[C@H](CCCNC(=N)N)NC3=O)NC(=O)[C@H](CC(=O)O)NC(=O)[C@H](Cc2ccc(O)cc2)NC1=O [SNX-111],protective action on nerve cells,[1],serves for protection against the liberation of glutamic acid from the cerebral cortex and against the subsequent disturbance of nerve cells
same,antalgic action,formalin test,has an antalgic action
"O=c1[nH]c2cc(C(F)(F)F)c(N3CCOCC3)cc2n(CP(=O)(O)O)c1=O [control compound, {[3,4-Dihydro-7-(4-morpholinyl)-2,3-dioxo-6-(trifluoromethyl)-1-(2H)-quinoxalinyl]methyl}phosphonic acid, reference compound]",infarct volume compared with the control group,[2]; 3 mg/kg/h i.v.,no difference from the control group
same,"Infarct volume in the cerebral cortex, Mean","[2]; 3 mg/kg/h i.v. (table: 3 mg/kg), from two hours after occlusion, 6 hours, 24 hours after occlusion",284.9±10.9 mm^3 and 284.9 mm^3
COc1ccc2c(c1)c(CC(=O)O)c(C)n2C(=O)c1ccc(Cl)cc1 [indomethacin],"average left hind leg-licking time, Mean","mice in a formalin test; 1 mg/kg p.o., formalin 90 minutes later",87.8 s
same,"average left hind leg-licking time, Mean","mice in a formalin test; 3 mg/kg p.o., formalin 90 minutes later",75.8 s
same,"average left hind leg-licking time, Mean","mice in a formalin test; 10 mg/kg p.o., formalin 90 minutes later",84.0 s
same,antalgic effect in the formalin test,mice in a formalin test; overall conclusion of the comparison,does not have any effect
CN1CC[C@]23c4c5ccc(O)c4O[C@H]2[C@@H](O)C=C[C@H]3[C@H]1C5 [morphine],"average left hind leg-licking time, Mean","mice in a formalin test; 3 mg/kg p.o., formalin 30 minutes later",68.2 s
same,"average left hind leg-licking time, Mean","mice in a formalin test; 10 mg/kg p.o., formalin 30 minutes later",58.0 s
same,"average left hind leg-licking time, Mean","mice in a formalin test; 30 mg/kg p.o., formalin 30 minutes later",29.6 s
ω-agatoxin IVA,protective action on nerve cells,[1],has a protective action on nerve cells
